In this assay the target is SRC (Homo sapiens, UniProt P12931). Description: SRC Biochemical Assay Protocol (microfluidic mobility shift assay, FLPeptide4 substrate). The procedure:
SRC Biochemical Assay Protocol
Src biochemical kinase activity was measured using a surrogate fluorescent peptide substrate [FLPeptide4; 5-FAM-EGIYGVLFKKK-CONH2 (PerkinElmer Cat. No. 760348)] with a microfluidic mobility shift assay. Reactions were performed in 384-well flat bottom polystyrene microplates (Corning Cat. No. 3570) at a final volume of 20 μL in 50 mM HEPES pH 7.4, 1 mM EGTA, 10 mM MgCl2, 0.01% Brij-35, 2 mM DTT, 0.05% BSA, 1% DMSO. Inhibition experiments were performed with compounds of the invention varying from 0.0017-100 μM with 0.26 nM SRC, 1.5 μM FLPeptide4, and 50 μM ATP. Specifically, 15 μl 1.3× mixtures of SRC+FLPeptide4+compounds were preincubated for 30 minutes at room temperature followed by addition of 5 μL 4×ATP. Reactions were carried out for 90 minutes then quenched with 40 μl 500 mM EDTA. Phosphorylated peptide product was measured with a mobility shift assay using a LabChip® EZ Reader system (PerkinElmer Cat. No. 122919). Inhibition ratios were calculated relative to neutral controls and IC50 values were obtained from dose response data fitted to a 4-parameter logistic model.

Chain of SRC (P12931 whole entry, species assumed): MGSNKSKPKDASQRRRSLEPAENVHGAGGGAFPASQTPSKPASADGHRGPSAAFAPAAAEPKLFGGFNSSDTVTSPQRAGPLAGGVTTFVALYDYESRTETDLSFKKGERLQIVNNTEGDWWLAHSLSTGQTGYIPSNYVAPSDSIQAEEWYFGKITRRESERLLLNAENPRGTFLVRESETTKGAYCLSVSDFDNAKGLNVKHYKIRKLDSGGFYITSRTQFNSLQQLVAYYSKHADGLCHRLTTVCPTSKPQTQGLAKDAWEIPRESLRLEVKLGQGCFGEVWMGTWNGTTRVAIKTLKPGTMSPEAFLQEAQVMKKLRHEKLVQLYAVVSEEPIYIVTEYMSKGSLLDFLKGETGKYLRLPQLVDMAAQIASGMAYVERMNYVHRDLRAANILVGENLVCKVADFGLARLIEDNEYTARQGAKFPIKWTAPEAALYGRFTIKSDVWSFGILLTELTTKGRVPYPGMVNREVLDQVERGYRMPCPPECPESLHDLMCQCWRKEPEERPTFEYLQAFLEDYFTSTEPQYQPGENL

With `C=CC(=O)N1CCC(N2CC(C#Cc3c(-c4ccc(Oc5cccc(C)n5)c(OC)c4)c4c(N)ncnc4n3C3CCOC3)C2)CC1` (stereo not shown) [III-91], the IC50 was in the range of 10 to 1000 nM. In the case of `C=CC(=O)N1CCC(N2CC(N)(C#Cc3c(-c4ccc(Oc5cccc(C)n5)c(OC)c4)c4c(N)ncnc4n3C)C2)CC1` [III-93], the IC50 was 1000 to 10000 nM. The same measure for `C=CC(=O)N1CC[C@@H](N2CC(C#Cc3c(-c4ccc(Oc5ccccc5)cc4)c4c(N)ncnc4n3C)C2)[C@H](C)C1` [III-66]: 10 to 1000 nM; for `Cn1c(C#CC2(O)CCN(C(=O)/C=C/CN3CCC3)CC2)c(-c2ccc(Oc3ccccc3)cc2)c2c(N)ncnc21` [III-50]: 10 to 1000 nM. `C=CC(=O)N1CC(N2CCC(C#Cc3c(-c4ccc(Oc5ccccn5)cc4)c4c(N)ncnc4n3C(C)C)CC2)C1` [Example I-47]: the half-maximal inhibitory concentration (IC50) lay in the range of 10 to 1000 nM. In the case of `C=CC(=O)N1CCC(C#Cc2c(-c3ccc(Nc4ccccn4)cc3)c3c(N)ncnc3n2C(C)C)CC1` [Example I-9] it was 10 to 1000 nM; in that of `C=CC(=O)N1CCC(N2CC(C#Cc3c(-c4ccc(Oc5ccccc5)cc4)c4c(N)ncnc4n3C)C2)CC1` [III-25], 10 to 1000 nM; in that of `C=CC(=O)N1CCC(C#Cc2c(-c3ccc(Oc4ccccc4)cc3)c3c(N)ncnc3n2C(C)CO)C1` (stereo not shown) [III-33], 10 to 1000 nM. The same measure for `CN(C)C/C=C/C(=O)N1CCC(O)(C#Cc2c(-c3ccc(Oc4ccccc4)cc3)c3c(N)ncnc3n2C)CC1` [III-16]: 10 to 1000 nM; for `CC(CO)n1c(C#CC2CCN(C(=O)/C=C/CN(C)C)C2)c(-c2ccc(Oc3ccccc3)cc2)c2c(N)ncnc21` (stereo not shown) [III-32]: 10 to 1000 nM. The same measure for `C=C(C)C(=O)N1CCC(C#Cc2c(-c3ccc(Oc4ccccc4)cc3)c3c(N)ncnc3n2[C@H]2CCOC2)CC1` [III-37]: 10 to 1000 nM; for `CN(C)C/C=C/C(=O)N1CC2(C1)CC(O)(C#Cc1c(-c3ccc(Oc4ccccc4)cc3)c3c(N)ncnc3n1C)C2` [III-26]: 10 to 1000 nM; for `Cn1c(C#CC2CCNCC2)c(-c2ccc(Oc3ccccc3)cc2)c2c(N)ncnc21` [II-159, 7-methyl-5-(4-phenoxyphenyl)-6-(piperidin-4-ylethynyl)-7H-pyrrolo[2,3-d]pyrimidin-4-amine]: 10 to 1000 nM. Take `C=CC(=O)N1CCC(C#Cc2c(-c3ccc(Oc4ccccc4)cc3)c3c(N)ncnc3n2CCCCN(C)C)C1` (stereo not shown) [III-20]: the IC50 lay in the range of 10 to 1000 nM. In the case of `C=CC(=O)N1CCC(N2CC(C#Cc3c(-c4ccc(Oc5cccc(C)n5)c(OC)c4)c4c(N)ncnc4n3C3CCOC3)C2)CC1` (stereo not shown) [II-125] it was 10 to 1000 nM; in that of `C=CC(=O)N1CCC(N2CC(C#Cc3c(-c4ccc(Oc5ccccc5)cc4)c4c(N)ncnc4n3[C@H]3CCOC3)C2)CC1` [III-63], no more than 10 nM; in that of `CC(C)n1c(C#CC2CCN(C)CC2)c(-c2ccc(Oc3ccccc3)cc2)c2c(N)ncnc21` [II-141, 7-isopropyl-6-((1-methylpiperidin-4-yl)ethynyl)-5-(4-phenoxyphenyl)-7H-pyrrolo[2,3-d]pyrimidin-4-amine], no more than 10 nM. In the case of `CC(C)n1c(C#CC2CCN(C(=O)/C=C/CN(C)C)C2)c(-c2ccc(Oc3ccccc3)cc2)c2c(N)ncnc21` (stereo not shown) [III-12] it was no more than 10 nM; in that of `C=CC(=O)N1CCC(N2CC(C#Cc3c(-c4ccc(Oc5ccccc5)cc4)c4c(N)ncnc4n3[C@H]3C[C@@H](O)C3)C2)CC1` [III-70], no more than 10 nM; in that of `C=CC(=O)N1CCC(N2CC(C#Cc3c(-c4ccc(Oc5ccccc5)c5c4OCO5)c4c(N)ncnc4n3C)C2)CC1` [III-85], no more than 10 nM.

`C=CC(=O)N1CCC(N2CC(C#Cc3c(-c4ccc(Oc5ccccc5)cc4)c4c(N)ncnc4n3C(C)CO)C2)CC1` (stereo not shown) [III-60]: the IC50 fell in the range of 10 to 1000 nM. In the case of `C=CC(=O)N1CCC(N2CC(C#Cc3c(-c4ccc(Oc5nnc(C)o5)c(OC)c4)c4c(N)ncnc4n3C)C2)CC1` [III-89] it was 10 to 1000 nM; in that of `CC(C(=O)O)N1CCC(C#Cc2c(-c3ccc(Oc4ccccc4)cc3)c3c(N)ncnc3n2C(C)C)CC1` (stereo not shown) [II-149, 2-(4-((4-amino-7-isopropyl-5-(4-phenoxyphenyl)-7H-pyrrolo[2,3-d]pyrimidin-6-yl)ethynyl)piperidin-1-yl)propanoic acid], no more than 10 nM. In the case of `C=C(C)C(=O)N1CCC(O)(C#Cc2c(-c3ccc(Oc4ccccc4)cc3)c3c(N)ncnc3n2C)CC1` [III-35] it was 10 to 1000 nM. With `CCC(=O)N1CCC(C#Cc2c(-c3ccc(Oc4ccccc4)cc3)c3c(N)ncnc3n2C2CCOC2)CC1` (stereo not shown) [II-156, 1-(4-((4-amino-5-(4-phenoxyphenyl)-7-(tetrahydrofuran-3-yl)-7H-pyrrolo[2,3-d]pyrimidin-6-yl)ethynyl)piperidin-1-yl)propan-1-one], the IC50 fell in the range of 10 to 1000 nM.

In the case of `CC(C)n1c(C#CC2CCC(N)CC2)c(-c2ccc(Oc3ccccc3)cc2)c2c(N)ncnc21` (stereo not shown) [II-151, 6-((4-aminocyclohexyl)ethynyl)-7-isopropyl-5-(4-phenoxyphenyl)-7H-pyrrolo[2,3-d]pyrimidin-4-amine], the IC50 is no more than 10 nM. As to `C=CC(=O)N1C[C@@H]2[C@@H](C#Cc3c(-c4ccc(Oc5cccc(C)n5)c(OC)c4)c4c(N)nccc4n3CCOC)[C@@H]2C1` [II-78], the IC50 fell in the range of 1000 to 10000 nM.

As for `C=CC(=O)N1CCC(C#Cc2c(-c3ccc(C(C#N)c4ccccc4)cc3)c3c(N)ncnc3n2C(C)C)CC1` (stereo not shown) [Example I-30], the IC50 was in the range of 10 to 1000 nM. In the case of `C=CC(=O)N1C[C@@H]2[C@@H](C#Cc3c(-c4ccc(Oc5ccccc5)c5c4OCO5)c4c(N)ncnc4n3C)[C@@H]2C1` [III-88] it was no more than 10 nM.

Consider `C=CC(=O)N1CCC(C#Cc2c(-c3ccc(Nc4cccc(C)n4)cc3)c3c(N)ncnc3n2C(C)C)CC1` [Example I-22], for which the IC50 is 10 to 1000 nM.

On to `C=CS(=O)(=O)N1CC(C#Cc2c(-c3ccc(Oc4ccccc4)cc3)c3c(N)ncnc3n2C(C)C)C1` [Example I-17], for which the IC50 was no more than 10 nM. Turning to `C=CC(=O)N1CCC(N2CC(F)(C#Cc3c(-c4ccc(Oc5cccc(C)n5)c(OC)c4)c4c(N)ncnc4n3C)C2)C[C@H]1COC` (stereo partly shown) [III-92], the IC50 is 10 to 1000 nM. Consider `CC(Cl)C(=O)N1CCC(C#Cc2c(-c3ccc(Oc4ccccc4)cc3)c3c(N)ncnc3n2C(C)C)CC1` (stereo not shown) [Example I-39], for which the IC50 fell in the range of 10 to 1000 nM. As for `CC(C)n1c(C#CC2CCNC2)c(-c2ccc(Oc3ccccc3)cc2)c2c(N)ncnc21` (stereo not shown) [II-157, 7-isopropyl-5-(4-phenoxyphenyl)-6-(pyrrolidin-3-ylethynyl)-7H-pyrrolo[2,3-d]pyrimidin-4-amine], the IC50 was no more than 10 nM. `C=CC(=O)N1CCC(C#Cc2c(-c3ccc(OCC4CCCC4)cc3)c3c(N)ncnc3n2C(C)C)CC1` [Example I-16]: the IC50 is 10 to 1000 nM. The same measure for `C=CC(=O)N1CC[C@@H](C#Cc2c(-c3ccc(Oc4ccccc4)cc3)c3c(N)ncnc3n2C)C[C@@H]1C` [III-79]: 10 to 1000 nM. As to `C=CC(=O)N1CCC(C#Cc2c(-c3ccc(Oc4ccccn4)cc3)c3c(N)ncnc3n2C(C)C)CC1` [Example I-12], the IC50 fell in the range of 10 to 1000 nM. The same measure for `C=CC(=O)N1CCC(N2CC(C#Cc3c(-c4ccc(Oc5ccccc5)cc4)c4c(N)ncnc4n3C3CCOC3)C2)CC1` (stereo not shown) [III-53]: no more than 10 nM; for `Nc1ncnc2c1c(-c1ccc(Oc3ccccc3)cc1)c(C#CC1CCN(C(=O)/C=C/CN3CCOCC3)CC1)n2[C@H]1CCOC1` [III-36]: 10 to 1000 nM. Take `C=CC(=O)N1CCC(N2CC(C#Cc3c(-c4ccc(Oc5ccccc5)cc4)c4c(N)ncnc4n3C)C2)C[C@H]1C` (stereo partly shown) [III-46]: the IC50 was in the range of 10 to 1000 nM.

These data come from US20250154154A1 (Relay Binney Street, 2nd Floor, priority 2020, published 2025).
